The source of these data is ChEMBL document CHEMBL1133076, “The design, synthesis and activity of non-ATP competitive inhibitors of pp60(c-src) tyrosine kinase. Part 1: hydroxynaphthalene derivatives” (Bioorg Med Chem Lett, 2000).

Calls of active or inactive are those of the source.

A word on the inhibition: it is the share of the control response that was lost under treatment. A word on the IC50: it is the point on the concentration scale where inhibition reaches its midpoint.

In one assay the target is T1, Proto-oncogene tyrosine-protein kinase Src (Homo sapiens, UniProt P12931). The assay can be described thus: Inhibition of human purified recombinant p60 c-Src tyrosine kinase at 100 uM.
T1 sequence (P12931 2-536 limits assumed): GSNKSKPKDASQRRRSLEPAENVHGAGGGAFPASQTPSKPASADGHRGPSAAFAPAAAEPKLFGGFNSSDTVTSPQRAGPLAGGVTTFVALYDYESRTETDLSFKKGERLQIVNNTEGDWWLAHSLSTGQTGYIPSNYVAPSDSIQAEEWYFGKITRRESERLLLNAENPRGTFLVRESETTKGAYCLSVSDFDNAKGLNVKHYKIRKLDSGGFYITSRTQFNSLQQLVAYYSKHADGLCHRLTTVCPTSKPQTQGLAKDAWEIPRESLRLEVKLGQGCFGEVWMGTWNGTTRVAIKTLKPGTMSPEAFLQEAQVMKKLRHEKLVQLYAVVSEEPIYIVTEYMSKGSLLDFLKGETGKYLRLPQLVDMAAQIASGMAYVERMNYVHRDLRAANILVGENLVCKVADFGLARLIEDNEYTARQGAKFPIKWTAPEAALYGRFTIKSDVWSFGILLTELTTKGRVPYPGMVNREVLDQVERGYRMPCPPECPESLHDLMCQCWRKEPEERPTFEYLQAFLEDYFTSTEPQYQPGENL
For the compound `O=C(NCc1ccc(O)cc1)c1cc2cccc(O)c2cc1O`, the inhibition came to 49%.
Consider `Oc1cc(O)cc(/C=C/c2ccc(O)c(O)c2)c1`, for which the inhibition was found to be 41%.
Still for that read-out and setting: then `O=C(NCc1ccccc1O)c1cc2cccc(O)c2cc1O`, with 41%.

A further assay has as its target T1, Proto-oncogene tyrosine-protein kinase Src. Kind of assay: nhibition of human purified recombinant pp60c-src tyrosine kinase at 100 uM (Inactive).
Take `COc1ccccc1CNC(=O)c1cc2ccc(O)cc2cc1O`: the inhibition result is “inactive”.
On to `COC(=O)c1cc2ccccc2cc1N`, for which the inhibition result is “inactive”.

The next assay has the same target. Kind of assay: Inhibition of human purified recombinant pp60c-src tyrosine kinase.
Regarding `O=C(Nc1cccc(O)c1)c1cc2cccc(O)c2cc1O`, the IC50 is 150 µM.

For another assay the target is unchanged. The assay can be described thus: Inhibition of human purified recombinant pp60c-src tyrosine kinase at 100 uM.
In the case of `O=C(NCc1cccc(O)c1)c1cc2ccc(O)cc2cc1O`, the inhibition is 55%.
Turning to `O=C(NCc1ccc(O)cc1)c1cc2ccc(O)cc2cc1O`, the inhibition stood at 42%.
On the same count and under the same terms, then `O=C(Nc1ccccc1O)c1cc2cccc(O)c2cc1O`, with 12%; and `COc1ccc(NC(=O)c2cc3cccc(O)c3cc2O)cc1`, with 35%; and `COc1ccccc1CNC(=O)c1cc2cccc(O)c2cc1O`, with 13%.
With `COc1cccc(NC(=O)c2cc3cccc(O)c3cc2O)c1`, the inhibition was determined as 33%.
Consider `O=C(Nc1cccc(O)c1)c1cc2ccc(O)cc2cc1O`, for which the inhibition is 89%.
Same read-out and setting: then `COc1ccc(CNC(=O)c2cc3cccc(O)c3cc2O)cc1`, with 14%; and `O=C(Nc1ccccc1O)c1cc2ccc(O)cc2cc1O`, with 39%.
Same read-out and setting: then `COC(=O)c1cc2ccc(O)cc2cc1O`, with 47%; and `O=C(Nc1ccc(O)cc1)c1cc2ccc(O)cc2cc1O`, with 23%; and `Cc1cc(O)c2c(c1)C(=O)c1cc(O)cc(O)c1C2=O`, with 22%.
On the same count and under the same terms, as for `O=C(Nc1cccc(O)c1)c1cc2cccc(O)c2cc1O`, the figure is 51%.
In the case of `COC(=O)c1cc2cccc(O)c2cc1O`, the inhibition was found to be 5%.
Consider `O=C(NCc1ccccc1O)c1cc2ccc(O)cc2cc1O`, for which the inhibition came out at 42%.
For the compound `O=C(Nc1ccc(O)cc1O)c1cc2cccc(O)c2cc1O`, the inhibition was found to be 14%.
Same read-out and setting: then `O=C(Nc1cccc(O)c1)c1ccc2cc(O)ccc2c1`, with 45%.
